We go through 5 compounds from patent US20230219912A1, “HALOGENATED BENZOTHIADIAZINES FOR THE TREATMENT OF CANCER” (BOARD OF REGENTS OF THE UNIVERSITY OF NEBRASKA, priority 2020, published 2023).

In assay [1] the test system is 22Rv1 prostate cancer cells. Kind of assay: MTS cytotoxicity assay in 22Rv1 prostate cancer cells. Conditions: Homo sapiens, 22Rv1, 48 h, read-out: reduction of 22Rv1 cell viability. As to the method:
(§1) The assay was performed as follows. To determine the cell growth inhibition ability of the synthesized compounds the (3-(4,5-dimethylthiazol-2-yl)-5-(3-carboxymethoxyphenyl)-2-(4-sulfophenyl)-2H-tetrazolium) (MTS) assay used according to the manufacturer's recommended protocol. Stock solutions of the synthesized compounds were prepared in DMSO. Cells were seeded at a density of 1×10^5 cells in 96-well plates. After 24 hours, cells were treated at the indicated concentrations of test compounds, limiting the final DMSO concentration to less than 1%. After incubation at 37° C. in an environment of 5% CO2 for 48-72 hours, 10 μL of MTS reagent (CellTiter 96© AQueous One Solution Reagent) was added to each well and incubated at the above mentioned conditions for 2-4 hr. Absorbance was recorded at 490 nm on a BioTek Synergy Mx multimode plate reader and the viability of cells were plotted as percentage of controls.

Assay [2] deals with phosphorylated vascular endothelial growth factor receptor-2 (VEGFR2). Kind of assay: Western blot of pVEGFR2 in VEGF-treated HUVEC cells. In kind it is cell-based, human. The settings on record: 20 μM, VEGF 10 ng/mL, 5 min. The procedure:
Cells were treated with test compounds (20 μM) along with VEGF (10 ng/mL) for 5 min. The DMSO was used as a negative control, whereas DMSO+VEGF was used as a positive control. Cells were lysed using RIPA buffer (10 mmol/L Tris-HCl, 1 mmol/L EDTA, 0.5 mmol/L EGTA, 1% Triton X-100, 0.1% sodium deoxycholate, 0.1% SDS and 140 mmol/L NaCl), supplemented with protease and phosphatase inhibitors (Halt Protease and Phosphatase Inhibitor). Cell lysates were centrifuged, and the supernatants were mixed with appropriate amount of 5×SDS loading buffer. Proteins were resolved on polyacrylamide gel and transferred onto nitrocellulose/PVDF membrane, blocked for 1 hour with 10% milk block prepared in 0.1% Tween 20 in 1×PBS (PBST), and treated with pVEGFR2 primary antibody at 4° C. overnight. The membrane was washed thrice with PBST, 5 minutes each, and treated with secondary antibody for 1 hour. The membrane was further washed three times, 5 minutes each, with PBST and developed using chemiluminescence, and the bands were analyzed using densitometry.

Assay [3] has as its system MDA-MB-468 triple negative breast cancer cells. Kind of assay: MTS cytotoxicity assay in MDA-MB-468 triple negative breast cancer cells. In kind it is cell-based. The settings on record: Homo sapiens, MDA-MB-468; 72 hours; mean ± SD n = 3. As to the method: The assay was performed as follows.
Derivatives were dosed at 10, 50 and 100 μM for 24, 48 and 72 hours and cell viability measured by MTS assay (FIG. 5).

For assay [4], the system named is human embryonic kidney (HEK293) cells. Kind of assay: MTS cytotoxicity assay in HEK293 cells. Conditions: 72 hours, mean ± SD n = 3. The format is cell-based. As to the method:
as §1
Cytotoxicity was also evaluated by using the low tumorigenic HEK293 cells at 50 μM concentration.

Assay [5] has as its system VEGF-induced proliferation of HUVEC cells. Kind of assay: VEGF-induced HUVEC proliferation, MTT assay. In kind it is cell-based, human. Conditions: for inhibition of VEGF-induced HUVEC proliferation (in words): 20 μM; for inhibition at 20 µM: Homo sapiens, HUVEC, 48 h, read-out: % Inhibition of Proliferation. An outline of the steps:
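HUVECs starved 24 h in 0.1% BSA/0.1% FBS basal medium, then treated 48 h with VEGF (10 ng/mL) alone or with compounds at 20 μM (DMSO <1%). Proliferation by MTT (2 h, 37° C), formazan dissolved in acidified isopropanol, absorbance at 570 nm.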

Assay [6] addresses T1, Mitochondrial respiratory complex II (Rattus norvegicus, UniProt P21913+Q641Z9+Q6PCT8+Q920L2).
T1 construct: measured spectrophotometrically using isolated rat heart mitochondria; from tissue; host or cells: rat heart mitochondria / sub-mitochondrial particles
Kind of assay: Mitochondrial respiratory complex II inhibition assay. Conditions: 100 μM, relative to DMSO control; read-out: inhibition of CII. In kind it is biochemical. An outline of the steps:
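Rat heart mitochondria or sub-mitochondrial particles in phosphate buffer pH 7.4 with 40 μM DCPIP, 1 mM KCN, 10 μM rotenone and 50 μM co-enzyme Q2.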

Setting [7] is: 20 μM compound, VEGF 10 ng/mL, relative to VEGF treated cells, mean ± SEM n = 3.

Entries after “also recorded” stand apart in the source; their conditions may differ. Like-named read-outs stand apart in the source and are kept apart here.

T1 sequence (Q920L2 35-656): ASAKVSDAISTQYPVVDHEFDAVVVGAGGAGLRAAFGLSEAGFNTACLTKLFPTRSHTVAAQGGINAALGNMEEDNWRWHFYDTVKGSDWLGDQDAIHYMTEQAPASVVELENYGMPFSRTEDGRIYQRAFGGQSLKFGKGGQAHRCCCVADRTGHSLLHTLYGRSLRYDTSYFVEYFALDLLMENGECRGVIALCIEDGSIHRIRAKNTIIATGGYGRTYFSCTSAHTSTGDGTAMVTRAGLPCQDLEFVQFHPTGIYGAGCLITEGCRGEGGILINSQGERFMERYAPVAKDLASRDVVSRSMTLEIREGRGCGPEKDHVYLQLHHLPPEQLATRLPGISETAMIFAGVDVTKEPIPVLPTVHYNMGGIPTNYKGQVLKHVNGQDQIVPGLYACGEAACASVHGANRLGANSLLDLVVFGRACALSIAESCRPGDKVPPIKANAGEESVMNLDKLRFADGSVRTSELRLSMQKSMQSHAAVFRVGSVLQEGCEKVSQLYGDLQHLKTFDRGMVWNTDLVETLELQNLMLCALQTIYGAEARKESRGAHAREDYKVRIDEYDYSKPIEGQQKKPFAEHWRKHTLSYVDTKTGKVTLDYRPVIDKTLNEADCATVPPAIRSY
T1 sequence (P21913 31-282): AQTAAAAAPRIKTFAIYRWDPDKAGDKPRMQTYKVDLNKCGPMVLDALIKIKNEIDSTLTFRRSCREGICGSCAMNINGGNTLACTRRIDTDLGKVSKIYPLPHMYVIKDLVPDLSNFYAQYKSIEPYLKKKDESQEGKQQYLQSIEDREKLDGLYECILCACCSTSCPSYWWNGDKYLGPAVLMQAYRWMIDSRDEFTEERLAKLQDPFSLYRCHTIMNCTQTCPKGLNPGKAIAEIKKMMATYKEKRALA
T1 sequence (Q641Z9 1-169): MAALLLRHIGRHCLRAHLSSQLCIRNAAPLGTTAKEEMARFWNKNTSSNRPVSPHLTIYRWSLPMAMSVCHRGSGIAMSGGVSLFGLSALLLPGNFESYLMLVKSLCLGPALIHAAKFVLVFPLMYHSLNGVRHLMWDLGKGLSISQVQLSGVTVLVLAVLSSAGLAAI
T1 sequence (Q6PCT8 57-159): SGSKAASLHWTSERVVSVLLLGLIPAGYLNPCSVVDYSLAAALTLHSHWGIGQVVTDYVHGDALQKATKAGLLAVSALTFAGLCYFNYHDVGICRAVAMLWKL

For the compound `CC(NC1=NS(=O)(=O)c2ccccc2N1)c1ccccc1` (stereo not shown) [Compound 24d, 3-((1-phenylethyl)amino)-4H-benzo[e][1,2,4]thiadiazine 1,1-dioxide], the cytotoxicity at 100 µM in assay [1] is around 30%. Further, in assay [2], the “attenuation of pVEGFR2 expression” value was “outperformed the parent compound; also recorded: most potent”.
With `O=S1(=O)N=C(NCc2ccc(OC(F)(F)F)cc2)Nc2cc(Cl)ccc21` [Compound 30b, 6-chloro-3-((4-(trifluoromethoxy)benzyl)amino)-4H-benzo[e][1,2,4]thiadiazine 1,1-dioxide], the IC50 amounted to 48 µM in assay [3] and 77.2 µM in assay [4]. The “attenuation of pVEGFR2 expression” value in assay [2] is on record as “outperformed the parent compound; also recorded: most potent”. Besides, in assay [5] (VEGF 10 ng/mL), the “inhibition of VEGF-induced HUVEC proliferation (in words)” value (shortened to “inhibition … (in words)”) is on record as “suppressed HUVEC proliferation; also recorded: enhanced activity”. For the same compound, the inhibition at 20 µM in assay [5] (setting [7]) was 196 ± 11%.
As to `O=S1(=O)N=C(NCc2ccc(OC(F)(F)F)cc2)Nc2ccc(Br)cc21` [Compound 30c, 7-bromo-3-((4-(trifluoromethoxy)benzyl)amino)-4H-benzo[e][1,2,4]thiadiazine 1,1-dioxide], the cytotoxicity at 100 µM in assay [1] turned out to be 45%. The “attenuation of pVEGFR2 expression” value in assay [2] is listed as “outperformed the parent compound”. Moreover, the inhibition at 100 µM in assay [6] came out at 21%.
In the case of `O=S1(=O)N=C(NC2CCCC2)Nc2ccc(Cl)cc21` [Compound 59e, 7-Chloro-3-(cyclopentylamino)-4H-benzo[e][1,2,4]thiadiazine 1,1-dioxide], the “attenuation of pVEGFR2 expression” value in assay [2] is on record as “outperformed the parent compound; also recorded: most potent”. In addition, the “inhibition … (in words)” value in assay [5] (VEGF 10 ng/mL) is given as “suppressed HUVEC proliferation; also recorded: enhanced activity”. In addition, the inhibition at 20 µM in assay [5] (setting [7]) is 133 ± 6%.
In the case of `COc1cccc(CNC2=NS(=O)(=O)c3cc(Cl)ccc3N2)c1` [Compound 62e, 7-Chloro-3-((3-methoxybenzyl)amino)-4H-benzo[e][1,2,4]thiadiazine 1,1-dioxide], the “attenuation of pVEGFR2 expression” value in assay [2] is “outperformed the parent compound; also recorded: most potent”. For the same compound, the “inhibition … (in words)” value in assay [5] (VEGF 10 ng/mL) was “suppressed HUVEC proliferation; also recorded: enhanced activity”. For the same compound, the inhibition at 20 µM in assay [5] was determined as 96 ± 16%.
